For orientation: IC50 means the point on the concentration scale where inhibition reaches its midpoint.

Experimental findings from patent US7919488B2, “Therapeutic compounds” (Pfizer Inc., priority 2006, dated 2011) are described below.

Counter-ions that a name gives are not always drawn. Some results are limits rather than exact numbers.

Assay type in all cases: biochemical
Assay [1] has as its target T1, CYP3A4 (Homo sapiens, UniProt P08684).
T1 construct: 0.1 mg/mL human liver microsomes; from tissue; host or cells: human liver microsomes
The assay can be described thus: IC50 against CYP3A4 by inhibition of testosterone metabolism in human liver microsomes. To be noted: 0.1 mg/mL human liver microsomes, 25 μM testosterone, 1 mM NADPH, 6-β-OH-testosterone production, eight minutes; read-out: IC50, μM (HLM, testosterone). The procedure, abridged: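 Testosterone used as substrate, incubated for eight minutes. 6-β-OH-testosterone formation quantified by LC-MS/MS (MRM) as peak area ratio to internal standard against a metabolite standard curve. IC50 derived from inhibition of this metabolism.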
(In general: Microsomes from liver hold many membrane-bound enzymes, among them those of drug oxidation.)

Assay [2] deals with T1, CYP3A4. The assay can be described thus: IC50 against CYP3A4 by inhibition of midazolam metabolism in human liver microsomes. To be noted: 0.1 mg/mL human liver microsomes, 2 μM midazolam, 1 mM NADPH, 1-hydroxymidazolam production, eight minutes; read-out: IC50, μM (HLM, midazolam). The procedure, abridged:
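Human liver microsomes (0.1 mg/mL) incubated 8 min with 2 μM midazolam and 1 mM NADPH in 100 mM potassium phosphate, pH 7.4. 1-Hydroxymidazolam quantified by LC-MS/MS (MRM) as peak area ratio to internal standard against a metabolite standard curve.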

In assay [3] the target is T2, recombinant CYP3A4-b5 enzyme (Baculosomes®) (Homo sapiens, UniProt P08684).
T2 construct: purchased Invitrogen (Carlsbad, Calif.)
T2 sequence (P08684 whole entry): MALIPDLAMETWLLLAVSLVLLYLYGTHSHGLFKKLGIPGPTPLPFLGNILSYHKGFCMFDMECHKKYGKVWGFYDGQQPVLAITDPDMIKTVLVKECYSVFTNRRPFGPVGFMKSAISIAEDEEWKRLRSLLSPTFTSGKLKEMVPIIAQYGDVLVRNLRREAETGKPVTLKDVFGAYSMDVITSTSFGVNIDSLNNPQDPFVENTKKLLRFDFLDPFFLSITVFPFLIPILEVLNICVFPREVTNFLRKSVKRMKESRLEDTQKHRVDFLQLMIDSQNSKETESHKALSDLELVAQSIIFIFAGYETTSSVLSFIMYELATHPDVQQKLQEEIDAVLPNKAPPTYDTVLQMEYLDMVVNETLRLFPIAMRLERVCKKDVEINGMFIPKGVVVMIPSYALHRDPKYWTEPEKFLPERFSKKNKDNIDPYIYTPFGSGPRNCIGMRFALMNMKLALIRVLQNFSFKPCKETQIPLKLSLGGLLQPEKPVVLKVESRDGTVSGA
The assay can be described thus: Kiapp against recombinant CYP3A4 enzyme (Baculosomes), BFC substrate. The following applies: recombinant CYP3A4-b5 (Invitrogen), 5 uM BFC, 200 uM NADPH, pre-incubation at least 30 minutes, pH 7.0, room temperature. The method, boiled down:
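Recombinant CYP3A4-b5 Baculosomes were run in 100 mM sodium phosphate pH 7.0 with 5 mM TCEP and 2% DMF at room temperature, with ~30 min pre-incubation. The reaction was started with NADPH (200 uM) and BFC (5 uM), both final. Kiapp came from initial fluorescence velocities over the first 5 min across inhibitor concentrations.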

For assay [4], the target named is T3, recombinant CYP3A4+b5 enzyme (Supersomes®) (Homo sapiens, UniProt P08684).
T3 construct: purchased BD Biosciences (Woburn, Mass.)
T3 sequence (P08684 2-503 limits assumed): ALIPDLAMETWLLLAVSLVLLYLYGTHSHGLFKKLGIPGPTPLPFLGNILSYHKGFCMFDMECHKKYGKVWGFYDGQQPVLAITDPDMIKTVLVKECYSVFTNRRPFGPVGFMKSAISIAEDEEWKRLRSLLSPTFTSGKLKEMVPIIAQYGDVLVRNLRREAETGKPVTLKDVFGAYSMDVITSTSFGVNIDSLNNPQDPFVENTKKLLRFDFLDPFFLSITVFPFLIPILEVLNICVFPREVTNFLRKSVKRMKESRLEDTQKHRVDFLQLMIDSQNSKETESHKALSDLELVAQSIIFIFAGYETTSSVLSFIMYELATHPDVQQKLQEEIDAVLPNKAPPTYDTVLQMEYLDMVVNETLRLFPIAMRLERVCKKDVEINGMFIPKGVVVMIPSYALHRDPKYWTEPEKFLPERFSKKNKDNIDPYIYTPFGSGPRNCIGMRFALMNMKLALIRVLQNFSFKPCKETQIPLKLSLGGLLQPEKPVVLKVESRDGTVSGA
The assay can be described thus: Kiapp against recombinant CYP3A4 enzyme (Supersomes), BFC substrate. To be noted: recombinant CYP3A4+b5 (BD Biosciences), 5 uM BFC, 200 uM NADPH, pre-incubation at least 30 minutes, pH 7.0, room temperature. Here is the method:
1. Determination of Compound Kiapp
A determination of the Kiapp of the compounds of the invention against recombinant CYP3A4 enzyme was performed as follows. The assay was performed in a 100 mM sodium phosphate buffer pH 7.0, 5 mM TCEP and containing 2% dimethylformamide (final concentration) upon addition of substrate and inhibitor. A typical reaction for the determination of Kiapp values was carried at room temperature in a solid black Costar u-bottom 96-well polypropylene plate. In each well, recombinant CYP3A4 enzyme (5.5 nM or 8 nM, final concentration depending on the commercial source of the enzyme) was pre-incubated in the presence of the inhibitor for at least 30 minutes in the assay buffer. When pre-incubation was completed (˜30 min), the reaction was initiated by adding NADPH (200 uM, final concentration), and 7-benzyloxy-4-(trifluoromethyl)-coumarin (BFC) (5 uM, final concentration). The oxidation of the coumarin substrate was recorded by a 96-well plate reader POLARstar (BMG LABTECH, Offenburg, Germany).
The initial reaction velocities were measured during the first 5 min of the reaction when the release of the fluorescent product is linear with time, in the absence and in the presence of various concentrations of inhibitors. For non-partial & partial inhibitors, the Kiapp values were determined by using the equation for tight-binding inhibitor developed by Morrison, J F (Morrison J F. Biochim Biophys Acta. 1969, 185: 269-86) and by Szedlaseck S E et al. (Szedlascek, S. E., Ostafe, V., Serban, M., and Vlad, M. O. Biochem. J. 1988, 254:311-312), respectively.
The fluorescent substrate BFC was purchased from Sigma (St Louis, Mo.). Two commercial sources of recombinant enzymes were used in this study: recombinant CYP3A4-b5 enzyme (Baculosomes®) was purchased from Invitrogen (Carlsbad, Calif.) and the recombinant CYP3A4+b5 enzyme (Supersomes®) was purchased from BD Biosciences (Woburn, Mass.).

T1 sequence (P08684 whole entry): as the sequence (P08684 whole entry) above

`CN(C(=O)Cn1nc(-c2c[nH]cn2)cc1Cc1ccc(F)cc1)[C@H]1CC[C@H](O)CC1` [Example 123, 2-[5-(4-fluorobenzyl)-3-(1H-imidazol-4-yl)-1H-pyrazol-1-yl]-N-(trans-4-hydroxycyclohexyl)-N-methylacetamide]: the IC50 in assay [1] turned out to be 0.554 µM; in assay [2], 0.397 µM. The figures for the Ki in assay [3] and in assay [4] were 0.459 µM and 0.167 µM, respectively.

`COC(=O)N[C@H]1CCN(C(=O)Cn2nc(-c3ccncc3)cc2Cc2ccc(F)cc2)C1` [Example 130, methyl [(3S)-1-{[5-(4-fluorobenzyl)-3-pyridin-4-yl-1H-pyrazol-1-yl]acetyl}pyrrolidin-3-yl]carbamate]: the results for the IC50 in assay [1] and in assay [2] were 0.032 µM and 0.015 µM, respectively. Besides, the figures for the Ki in assay [3] and in assay [4] were 0.0276 µM and 0.00618 µM, respectively.

For the compound `CS(=O)(=O)NC1CN(C(=O)Cn2nc(-c3ccncc3)cc2Cc2ccc(F)cc2)C1` [Example 125, N-(1-{2-[5-(4-fluorobenzyl)-3-pyridin-4-yl-1H-pyrazol-1-yl]acetyl}azetidin-3-yl)methanesulfonamide], the IC50 in assay [1] worked out at 0.027 µM; in assay [2], 0.022 µM. In addition, the Ki turned out to be 0.0666 µM in assay [3] and 0.00884 µM in assay [4].

For the compound `CS(=O)(=O)C1CCN(C(=O)Cn2nc(-c3ccncc3)cc2Cc2ccc(F)cc2)CC1` [Example 6, 4-(5-(4-fluorobenzyl)-1-{2-[4-(methylsulfonyl)piperidin-1-yl]-2-oxoethyl}-1H-pyrazol-3-yl)pyridine], the half-maximal inhibitory concentration (IC50) in assay [1] was found to be 0.024 µM; in assay [2], 0.0218 µM. The Ki in assay [3] turned out to be 0.0237 µM; in assay [4], 0.0118 µM.

`CC(=O)NC1CN(C(=O)Cn2nc(-c3ccncc3)cc2Cc2ccc(F)cc2)C1` [Example 127, N-(1-{2-[5-(4-fluorobenzyl)-3-pyridin-4-yl-1H-pyrazol-1-yl]acetyl}azetidin-3-yl)acetamide]: the figures for the IC50 in assay [1] and in assay [2] were 0.08 µM and 0.041 µM, respectively. Moreover, the figures for the Ki in assay [3] and in assay [4] were 0.141 µM and 0.0191 µM, respectively.

On to `CC(C)NC(=O)N(C)C1CCN(C(=O)Cn2nc(-c3ccncc3)cc2Cc2ccc(F)cc2)CC1` [Example 16, N-(1-{[5-(4-fluorobenzyl)-3-pyridin-4-yl-1H-pyrazol-1-yl]acetyl}piperidin-4-yl)-N′-isopropyl-N-methylurea], for which the IC50 in assay [1] came to 0.016 µM; in assay [2], 0.00707 µM. Also, the Ki is 0.0369 µM in assay [3] and 0.0139 µM in assay [4].

On to `CCC(=O)N(C)C1CCN(C(=O)Cn2nc(-c3ccncc3)cc2Cc2ccc(F)cc2)CC1` [Example 10, N-(1-{[5-(4-fluorobenzyl)-3-pyridin-4-yl-1H-pyrazol-1-yl]acetyl}piperidin-4-yl)-N-methylpropanamide], for which the IC50 was 0.033 µM in assay [1] and 0.013 µM in assay [2]. The Ki in assay [3] amounted to 0.0297 µM.

With `O=C(Cn1nc(-c2ccncc2)cc1Cc1ccc(F)cc1)N1CCCC(O)C1` (stereo not drawn) [Example 76, 1-{[5-(4-fluorobenzyl)-3-pyridin-4-yl-1H-pyrazol-1-yl]acetyl}piperidin-3-ol], the values for the IC50 in assay [1] and in assay [2] were 0.0333 µM and less than 0.0184 µM, respectively. Further, in assay [3], the Ki was determined as 0.117 µM.

On to `O=C(CCN1CCOCC1)N1CC(n2nc(-c3ccncc3)cc2Cc2ccc(F)cc2)C1` [Example 67, 4-(3-{3-[5-(4-fluorobenzyl)-3-pyridin-4-yl-1H-pyrazol-1-yl]azetidin-1-yl}-3-oxopropyl)morpholine], for which the results for the IC50 in assay [1] and in assay [2] were 0.052 µM and 0.042 µM, respectively. Besides, the Ki in assay [3] came out at 0.074 µM.

For `CN(C)[C@@H]1CCN(C(=O)Cn2nc(-c3ccncc3)cc2Cc2ccc(F)cc2)C1` [Example 72, (3R)-1-{[5-(4-fluorobenzyl)-3-pyridin-4-yl-1H-pyrazol-1-yl]acetyl}-N,N-dimethylpyrrolidin-3-amine], the IC50 in assay [1] and in assay [2] was 0.026 µM in each case. In addition, in assay [3], the Ki was found to be 0.226 µM.

With `N[C@@H]1CCN(C(=O)Cn2nc(-c3ccncc3)cc2Cc2ccc(F)cc2)C1` [Example 65, (3R)-1-{[5-(4-fluorobenzyl)-3-pyridin-4-yl-1H-pyrazol-1-yl]acetyl}pyrrolidin-3-amine], the IC50 in assay [1] worked out at 0.134 µM; in assay [2], 0.059 µM. In addition, the Ki in assay [3] stood at 0.673 µM.

`C[C@@H](O)CNC(=O)Cn1nc(-c2ccncc2)cc1Cc1ccc(F)cc1` [Example 63, 2-[5-(4-fluorobenzyl)-3-pyridin-4-yl-1H-pyrazol-1-yl]-N-[(2R)-2-hydroxypropyl]acetamide]: the IC50 in assay [1] was determined as 0.048 µM; in assay [2], 0.04 µM. Besides, in assay [3], the Ki turned out to be 0.178 µM.

With `COCCn1nc(-c2ccncc2)cc1Cc1ccc(F)cc1` [Example 31, 4-(5-(4-fluorobenzyl)-1-(2-methoxyethyl)-1H-pyrazol-3-yl)pyridine], the IC50 was 0.0225 µM in assay [1] and 0.0466 µM in assay [2]. For the same compound, the Ki in assay [3] stood at 0.105 µM.

Take `CC(C)(CN1CCOCC1)NC(=O)Cn1nc(-c2ccncc2)cc1Cc1ccc(F)cc1` [Example 54, N-(1,1-dimethyl-2-morpholin-4-ylethyl)-2-[5-(4-fluorobenzyl)-3-pyridin-4-yl-1H-pyrazol-1-yl]acetamide]: the IC50 in assay [1] and in assay [2] was less than 0.012 µM in each case. Also, the Ki in assay [3] came to 0.0085 µM.

As to `CN(C)C(=O)c1noc(Cn2nc(-c3ccncc3)cc2Cc2ccc(F)cc2)n1` [Example 27, 5-{[5-(4-fluorobenzyl)-3-pyridin-4-yl-1H-pyrazol-1-yl]methyl}-N,N-dimethyl-1,2,4-oxadiazole-3-carboxamide (maleic acid salt)], the IC50 in assay [1] came to 0.021 µM; in assay [2], 0.086 µM. For the same compound, the Ki in assay [3] amounted to 0.12 µM.

With `Cc1cc(CNC(=O)Cn2nc(-c3ccncc3)cc2Cc2ccc(F)cc2)no1` [Example 88, 2-[5-(4-fluorobenzyl)-3-pyridin-4-yl-1H-pyrazol-1-yl]-N-[(5-methylisoxazol-3-yl)methyl]acetamide], the IC50 in assay [1] was determined as 0.016 µM; in assay [2] it was 0.024 µM. The Ki in assay [3] was found to be 0.0753 µM.

Turning to `CC(C)(O)CNC(=O)Cn1nc(-c2ccncc2)cc1Cc1ccc(F)cc1` [Example 60, 2-[5-(4-fluorobenzyl)-3-pyridin-4-yl-1H-pyrazol-1-yl]-N-(2-hydroxy-2-methylpropyl)acetamide], the figures for the IC50 in assay [1] and in assay [2] were 0.032 µM and 0.02 µM, respectively. Moreover, the Ki in assay [3] came to 0.0765 µM.

`CC(C)NC(=O)Cn1nc(-c2ccncc2)cc1Cc1ccc(F)cc1` [Example 58, 2-[5-(4-fluorobenzyl)-3-pyridin-4-yl-1H-pyrazol-1-yl]-N-isopropylacetamide]: the IC50 in assay [1] amounted to 0.027 µM; in assay [2], 0.043 µM. Also, in assay [3], the Ki was 0.103 µM.

Turning to `CN(C1CCN(C(=O)Cn2nc(-c3ccncc3)cc2Cc2ccc(F)cc2)CC1)S(C)(=O)=O` [Example 14, N-(1-{[5-(4-fluorobenzyl)-3-pyridin-4-yl-1H-pyrazol-1-yl]acetyl}piperidin-4-yl)-N-methylmethanesulfonamide], the figures for the concentration for half-maximal inhibition (IC50) in assay [1] and in assay [2] were 0.015 µM and 0.013 µM, respectively. Besides, in assay [3], the Ki was 0.0236 µM.

As to `O=C(Cn1nc(-c2ccncc2)cc1Cc1ccc(F)cc1)N[C@H]1CC[C@H](O)CC1` [Example 96, 2-[5-(4-fluorobenzyl)-3-pyridin-4-yl-1H-pyrazol-1-yl]-N-(trans-4-hydroxycyclohexyl)-acetamide], the figures for the IC50 in assay [1] and in assay [2] were less than 0.0225 µM and less than 0.013 µM, respectively. In addition, the Ki in assay [3] turned out to be 0.0227 µM.
